# Read-outs that look alike come from different tables or passages of the source.
# Legend:
# Format in all cases: in vivo
# Cyperus serotinus = assay: Pre-emergence herbicidal action against harmful plants; conditions: Comparative Table 7, 320 g a.i./ha, visual scoring 3-4 weeks after treatment
# From the text: (§1) 1. Pre-Emergence Herbicidal Action Against Harmful Plants Seeds or rhizome pieces of mono- and dicotyledonous harmful plants are placed in sandy loam in pots of a diameter of 9 to 13 cm and covered with soil. The herbicides, formulated as emulsifiable concentrates or dusts, are applied to the surface of the covering soil in the form of aqueous dispersions or suspensions or emulsions at an application rate of 300 to 800 l of water/ha (converted), at various dosages. For further cultivation of the plants, the pots are then kept in a greenhouse under optimum conditions. The visual scoring of the damage to the harmful plants is carried out 3-4 weeks after the treatment. As shown by the results of these comparative tables, the selected compounds according to the invention have better herbicidal activity against a broad spectrum of economically important mono- and dicotyledonous harmful plants than the compounds disclosed in the prior art.
# Polygonum convolvulus [1] = assay: as above; conditions: Comparative Table 7, 320 g a.i./ha, visual scoring 3-4 weeks after treatment
# From the text: as §1
# Veronica persica [2] = assay: as above; conditions: Comparative Table 7, 320 g a.i./ha, visual scoring 3-4 weeks after treatment
# From the text: as §1
# Amaranthus retroflexus [3] = assay: Post-emergence herbicidal action against harmful plants; conditions: scored after 3 to 4 weeks
# Description: (§2) 2. Post-Emergence Herbicidal Action Against Harmful Plants
# (§3) Seeds of mono- and dicotyledonous harmful plants are placed in sandy loam in cardboard pots, covered with soil and grown in the greenhouse under good growth conditions. Two to three weeks after sowing, the test plants are treated at the three-leaf stage. The compounds according to the invention, which are formulated as wettable powders or as emulsion concentrates, are sprayed at an application rate of 600 to 800 l of water/ha (converted) in a dosage stated in tables 1 to 5 onto the surface of the green plant parts. After the test plants have been left to stand in the greenhouse for 3 to 4 weeks under optimum growth conditions, the action of the compounds according to the invention is scored in comparison to compounds disclosed in the prior art. As shown by the results of these comparison tables, the selected compounds according to the invention have better herbicidal activity against a broad spectrum of economically important mono- and dicotyledonous harmful plants than the compounds disclosed in the prior art.
# Polygonum convolvulus [4] = assay: as above; conditions: Comparative Table 1, 20 g a.i./ha, scored after 3 to 4 weeks
# Description: as §2, §3
# Viola tricolor = assay: as above; conditions: scored after 3 to 4 weeks
# Description: as §2, §3
# Xanthium strumarium = assay: as above; conditions: Comparative Table 1, 20 g a.i./ha, scored after 3 to 4 weeks
# Description: as §2, §3
# Abutilon theophrasti = assay: as above; conditions: Comparative Table 8, 20 g a.i./ha, scored after 3 to 4 weeks
# Description: as §2, §3
# Setaria viridis [5] = assay: as above; conditions: scored after 3 to 4 weeks, read-out: Activity against harmful plants SETVI; for pest or weed control at 80 g/ha: Comparative Table 2, 80 g a.i./ha
# Description: as §2, §3
# Stellaria media = assay: as above; conditions: Comparative Table 8, 20 g a.i./ha, scored after 3 to 4 weeks
# Description: as §2, §3
# Veronica persica [6] = assay: as above; conditions: scored after 3 to 4 weeks
# Description: as §2, §3
# Amaranthus retroflexus [7] = assay: Pre-emergence herbicidal action against harmful plants; conditions: Comparative Table 5, 80 g a.i./ha, visual scoring 3-4 weeks after treatment
# From the text: as §1
# Avena fatua = assay: as above; conditions: Comparative Table 5, 80 g a.i./ha, visual scoring 3-4 weeks after treatment
# From the text: as §1
# Echinochloa crus galli = assay: as above; conditions: visual scoring 3-4 weeks after treatment
# From the text: as §1
# Setaria viridis [8] = assay: as above; conditions: visual scoring 3-4 weeks after treatment
# From the text: as §1
# Pharbitis purpureum = assay: Post-emergence herbicidal action against harmful plants; conditions: scored after 3 to 4 weeks
# Description: as §2, §3
# Digitaria sanguinalis = assay: as above; conditions: Comparative Table 4, 20 g a.i./ha, scored after 3 to 4 weeks
# Description: as §2, §3
# Galium aparine = assay: as above; conditions: Comparative Table 4, 20 g a.i./ha, scored after 3 to 4 weeks
# Description: as §2, §3
# [9] = Comparative Table 1, 20 g a.i./ha
# [10] = Comparative Table 8, 20 g a.i./ha
# [11] = Comparative Table 5, 80 g a.i./ha
# [12] = Comparative Table 6, 20 g a.i./ha
# [13] = Comparative Table 3, 20 g a.i./ha
# [14] = Comparative Table 2, 80 g a.i./ha
# [15] = Comparative Table 4, 20 g a.i./ha
smiles,measurement,setting,value
Cn1ncc(C(=O)c2ccc(S(C)(=O)=O)c(NCC3CC3)c2Cl)c1O,Activity against harmful plants CYPES,Cyperus serotinus,40%
same,Activity against harmful plants POLCO,Polygonum convolvulus [1],0%
same,Activity against harmful plants VERPE,Veronica persica [2],80%
CNc1c(S(C)(=O)=O)ccc(C(=O)c2cnn(C)c2O)c1Cl,Activity against harmful plants AMARE,Amaranthus retroflexus [3]; [9],70%
same,Activity against harmful plants POLCO,Polygonum convolvulus [4],40%
same,Activity against harmful plants VIOTR,Viola tricolor; [9],70%
same,Activity against harmful plants XANST,Xanthium strumarium,50%
Cc1c(C(=O)c2cnn(C)c2O)ccc(S(C)(=O)=O)c1N(C)CC1CC1,Activity against harmful plants ABUTH,Abutilon theophrasti,90%
same,pest or weed control at 20 g/ha,Setaria viridis [5]; [10],90%
same,Activity against harmful plants STEME,Stellaria media,100%
same,Activity against harmful plants VERPE,Veronica persica [6]; [10],80%
CCOCCNc1c(S(C)(=O)=O)ccc(C(=O)c2cnn(C)c2O)c1Cl,Activity against harmful plants AMARE,Amaranthus retroflexus [7],80%
same,Activity against harmful plants AVEFA,Avena fatua,0%
same,Activity against harmful plants ECHCG,Echinochloa crus galli; [11],40%
same,Activity against harmful plants SETVI,Setaria viridis [8]; [11],80%
CN(CC1CC1)c1c(S(C)(=O)=O)ccc(C(=O)c2cnn(C)c2O)c1Cl,Activity against harmful plants ABUTH,Abutilon theophrasti,70%
same,pest or weed control at 20 g/ha,Setaria viridis [5]; [10],30%
same,Activity against harmful plants STEME,Stellaria media,80%
same,Activity against harmful plants VERPE,Veronica persica [6]; [10],60%
CCNc1c(S(C)(=O)=O)ccc(C(=O)c2cnn(C)c2O)c1Cl,Activity against harmful plants ECHCG,Echinochloa crus galli; [12],60%
same,Activity against harmful plants SETVI,Setaria viridis [8]; [12],0%
CCNc1c(S(C)(=O)=O)ccc(C(=O)c2cnn(C)c2O)c1C,Activity against harmful plants ECHCG,Echinochloa crus galli; [12],90%
same,Activity against harmful plants SETVI,Setaria viridis [8]; [12],60%
COCCN(C)c1c(S(C)(=O)=O)ccc(C(=O)c2cnn(C)c2O)c1Cl,Activity against harmful plants AMARE,Amaranthus retroflexus [3]; [13],60%
same,Activity against harmful plants PHBPU,Pharbitis purpureum; [13],30%
same,pest or weed control at 20 g/ha,Setaria viridis [5]; [13],50%
same,Activity against harmful plants VERPE,Veronica persica [6]; [13],60%
CNc1c(S(C)(=O)=O)ccc(C(=O)c2cnn(C)c2O)c1C,Activity against harmful plants AMARE,Amaranthus retroflexus [3]; [9],90%
same,Activity against harmful plants POLCO,Polygonum convolvulus [4],90%
same,Activity against harmful plants VIOTR,Viola tricolor; [9],100%
same,Activity against harmful plants XANST,Xanthium strumarium,80%
COCCCN(C)c1c(S(C)(=O)=O)ccc(C(=O)c2cnn(C)c2O)c1C,Activity against harmful plants AMARE,Amaranthus retroflexus [3]; [14],100%
same,Activity against harmful plants PHBPU,Pharbitis purpureum; [14],70%
same,pest or weed control at 80 g/ha,Setaria viridis [5],100%
same,Activity against harmful plants VIOTR,Viola tricolor; [14],90%
Cc1c(C(=O)c2cnn(C)c2O)ccc(S(C)(=O)=O)c1NCC1CC1,Activity against harmful plants CYPES,Cyperus serotinus,100%
same,Activity against harmful plants POLCO,Polygonum convolvulus [1],60%
same,Activity against harmful plants VERPE,Veronica persica [2],100%
COCCCN(C)c1c(S(C)(=O)=O)ccc(C(=O)c2cnn(C)c2O)c1Cl,Activity against harmful plants AMARE,Amaranthus retroflexus [3]; [14],70%
same,Activity against harmful plants PHBPU,Pharbitis purpureum; [14],40%
same,pest or weed control at 80 g/ha,Setaria viridis [5],0%
same,Activity against harmful plants VIOTR,Viola tricolor; [14],70%
CCCNc1c(S(C)(=O)=O)ccc(C(=O)c2cnn(C)c2O)c1Cl,Activity against harmful plants DIGSA,Digitaria sanguinalis,70%
same,Activity against harmful plants GALAP,Galium aparine,30%
same,pest or weed control at 20 g/ha,Setaria viridis [5]; [15],50%
same,Activity against harmful plants VERPE,Veronica persica [6]; [15],30%
COCCN(C)c1c(S(C)(=O)=O)ccc(C(=O)c2cnn(C)c2O)c1C,Activity against harmful plants AMARE,Amaranthus retroflexus [3]; [13],90%
same,Activity against harmful plants PHBPU,Pharbitis purpureum; [13],80%
same,pest or weed control at 20 g/ha,Setaria viridis [5]; [13],90%
same,Activity against harmful plants VERPE,Veronica persica [6]; [13],100%
CCCNc1c(S(C)(=O)=O)ccc(C(=O)c2cnn(C)c2O)c1C,Activity against harmful plants DIGSA,Digitaria sanguinalis,90%
same,Activity against harmful plants GALAP,Galium aparine,80%
same,pest or weed control at 20 g/ha,Setaria viridis [5]; [15],80%
same,Activity against harmful plants VERPE,Veronica persica [6]; [15],70%
CCOCCNc1c(S(C)(=O)=O)ccc(C(=O)c2cnn(C)c2O)c1C,Activity against harmful plants AMARE,Amaranthus retroflexus [7],100%
same,Activity against harmful plants AVEFA,Avena fatua,50%
same,Activity against harmful plants ECHCG,Echinochloa crus galli; [11],100%
same,Activity against harmful plants SETVI,Setaria viridis [8]; [11],100%

# Source: patent publication US7943550B2, “4-(3-Aminobenzoyl)-1 methylpyrazoles and their use as herbicides” (Bayer Cropscience AG, priority 2007, dated 2011)
